This assay concerns the target T1, GLP-1 Receptor (Homo sapiens, UniProt P43220).
T1 construct: host or cells: HEK293/CRE-Luc (HEK293/GLP1R/CRE-LUC)
In words: GLP-1R agonist cAMP stimulation assay (HEK293/GLP1R/CRE-LUC cells, Cisbio cAMP dynamic 2 kit). The following applies: HEK293/CRE-Luc cells stably expressing the GLP-1 Receptor, 30 min at 37° C. In kind it is cell-based. As for the experimental part:
Activation of GLP-1 receptor is known to stimulate cyclic AMP (cAMP) production in cells which indicates primary coupling to the Gas subunit of the G protein heterotrimeric complex.
To optimize functional activity directed toward Gas coupling, a HEK293/CRE-Luc cell line developed by HDB stably expressing the GLP-1 Receptor was used. 200× concentration of compound working solutions were prepared (Agilent Technologies Bravo) with ½ log serial dilution in 384-well Echo LDV plate (Labcyte, Cat #LP-0200). […] 200× concentration of compound working solutions were moved to 384-well white low volume plate (Greiner, Cat #784075) using Labcyte ECHO550. 1×10^5 cells/mL HEK293/GLP1R/CRE-LUC (HD Biosciences) cell suspensions prepared with assay buffer [DPBS containing 0.5 mM IBMX (Sigma, Cat #15879) and 0.1% BSA (GENVIEW, Cat #FA016-100g)], 10 μL cell suspensions were added to each well of previous generated assay plate which already contains […] compound at 200×concentration using ThermoFisher Multidrop Combi (1000 cells/well). Seal the plate and incubate at 37° C. with 5% CO2 for 30 min.
After incubation the cAMP assay signal was generated using cAMP dynamic 2 Kit (Cisbio). 5 μL cAMP-d2 working solution was added to each well, followed with 5 μL Anti-cAMP antibody-cryptate working solution added to each well using ThermoFisher Multidrop Combi. Incubate at room temperature for 1 hour protected from light. Read the fluorescence at 665 and 615 nm with Reader PerkinElmer EnVision.
T1 sequence (P43220 24-463, species assumed): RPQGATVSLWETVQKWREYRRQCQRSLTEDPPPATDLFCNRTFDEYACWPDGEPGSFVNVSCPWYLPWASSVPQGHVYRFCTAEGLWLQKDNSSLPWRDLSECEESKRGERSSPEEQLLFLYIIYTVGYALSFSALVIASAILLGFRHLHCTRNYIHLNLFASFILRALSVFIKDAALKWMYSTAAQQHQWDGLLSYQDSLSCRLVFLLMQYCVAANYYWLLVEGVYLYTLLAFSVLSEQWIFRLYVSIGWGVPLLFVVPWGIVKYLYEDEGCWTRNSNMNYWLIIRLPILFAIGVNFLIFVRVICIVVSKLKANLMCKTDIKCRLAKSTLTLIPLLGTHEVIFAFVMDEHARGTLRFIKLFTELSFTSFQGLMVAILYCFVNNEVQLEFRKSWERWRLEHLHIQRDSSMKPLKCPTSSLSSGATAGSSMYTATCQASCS
As for `FC(F)Oc1nc(COc2cccc(C3CCN(Cc4nc5cc(-c6nnc(C(F)(F)F)[nH]6)ncc5n4C[C@@H]4CCO4)CC3)n2)ccc1Cl` [Compound 13, (S)-2-((4-(6-((5-chloro-6-(difluoromethoxy)pyridin-2-yl)methoxy)pyridin-2-yl)piperidin-1-yl)methyl)-3-(oxetan-2-ylmethyl)-6-(5-(trifluoromethyl)-4H-1,2,4-triazol-3-yl)-3H-imidazo[4,5-c]pyridine], the half-maximal effective concentration (EC50) (in general, the concentration that produces a half-maximal response) is under 1 nM.
The result for `Fc1ccc(COc2cccc(C3CCN(Cc4nc5cc(-c6nnc(C(F)(F)F)[nH]6)ncc5n4C[C@@H]4CCO4)CC3)n2)nc1OC(F)F` [Compound 14, (S)-2-((4-(6-((6-(difluoromethoxy)-5-fluoropyridin-2-yl)methoxy)pyridin-2-yl)piperidin-1-yl)methyl)-3-(oxetan-2-ylmethyl)-6-(5-(trifluoromethyl)-4H-1,2,4-triazol-3-yl)-3H-imidazo[4,5-c]pyridine] reads under 1 nM.
`Cc1ccc(COc2cccc(C3CCN(Cc4nc5cc(-c6nnc(C(F)(F)F)[nH]6)ncc5n4C[C@@H]4CCO4)CC3)n2)c(OC(F)F)n1` [Compound 15, (S)-2-((4-(6-((2-(difluoromethoxy)-6-methylpyridin-3-yl)methoxy)pyridin-2-yl)piperidin-1-yl)methyl)-3-(oxetan-2-ylmethyl)-6-(5-(trifluoromethyl)-4H-1,2,4-triazol-3-yl)-3H-imidazo[4,5-c]pyridine] yielded an EC50 of under 1 nM.
The result for `FC(F)(F)c1nnc(-c2cc3nc(CN4CCC(c5cccc(OCc6ccc(Cl)c7c6OCO7)n5)CC4)n(C[C@@H]4CCO4)c3cn2)[nH]1` [Compound 16, (S)-2-((4-(6-((7-chlorobenzo[d][1,3]dioxol-4-yl)methoxy)pyridin-2-yl)piperidin-1-yl)methyl)-3-(oxetan-2-ylmethyl)-6-(5-(trifluoromethyl)-4H-1,2,4-triazol-3-yl)-3H-imidazo[4,5-c]pyridine] reads under 1 nM; that for `Fc1ccc(COc2cccc(C3CCN(Cc4nc5cc(-c6nnc(C(F)(F)F)[nH]6)ncc5n4C[C@@H]4CCO4)CC3)n2)c2c1OCO2` [Compound 17, (S)-2-((4-(6-((7-fluorobenzo[d][1,3]dioxol-4-yl)methoxy)pyridin-2-yl)piperidin-1-yl)methyl)-3-(oxetan-2-ylmethyl)-6-(5-(trifluoromethyl)-4H-1,2,4-triazol-3-yl)-3H-imidazo[4,5-c]pyridine], under 1 nM; that for `FC1(F)Oc2cccc(COc3cccc(C4CCN(Cc5nc6cc(-c7nnc(C(F)(F)F)[nH]7)ncc6n5C[C@@H]5CCO5)CC4)n3)c2O1` [Compound 18, (S)-2-((4-(6-((2,2-difluorobenzo[d][1,3]dioxol-4-yl)methoxy)pyridin-2-yl)piperidin-1-yl)methyl)-3-(oxetan-2-ylmethyl)-6-(5-(trifluoromethyl)-4H-1,2,4-triazol-3-yl)-3H-imidazo[4,5-c]pyridine], under 1 nM.
In turn, `[2H]C1([2H])Oc2cccc(COc3cccc(C4CCN(Cc5nc6cc(-c7nnc(C(F)(F)F)[nH]7)ncc6n5C[C@@H]5CCO5)CC4)n3)c2O1` [Compound 19, (S)-2-((4-(6-((benzo[d][1,3]dioxol-4-yl-2,2-d2)methoxy)pyridin-2-yl)piperidin-1-yl)methyl)-3-(oxetan-2-ylmethyl)-6-(5-(trifluoromethyl)-4H-1,2,4-triazol-3-yl)-3H-imidazo[4,5-c]pyridine] showed an EC50 of under 1 nM.
`FC(F)(F)c1nnc(-c2cc3nc(CN4CCC(c5cccc(OCc6nc7ccccc7s6)n5)CC4)n(C[C@@H]4CCO4)c3cn2)[nH]1` [Compound 20, (S)-2-(((6-(1-((3-(oxetan-2-ylmethyl)-6-(5-(trifluoromethyl)-4H-1,2,4-triazol-3-yl)-3H-imidazo[4,5-c]pyridin-2-yl)methyl)piperidin-4-yl)pyridin-2-yl)oxy)methyl)benzo[d]thiazole] had an EC50 of under 1 nM.
On to `Cc1ccc(COc2cccc(C3CCN(Cc4nc5cc(-c6nnc(C(F)(F)F)[nH]6)ncc5n4C[C@@H]4CCO4)CC3)n2)nn1` [Compound 21, 3-methyl-6-{[(6-{1-[(3-{[(2S)-oxetan-2-yl]methyl}-6-[5-(trifluoromethyl)-4H-1,2,4-triazol-3-yl]-3H-imidazo[4,5-c]pyridin-2-yl)methyl]piperidin-4-yl}pyridin-2-yl)oxy]methyl}pyridazine], for which the EC50 is under 1 nM.
Molecule `Fc1cn(C2CC2)nc1COc1cccc(C2CCN(Cc3nc4cc(-c5nnc(C(F)(F)F)[nH]5)ncc4n3C[C@@H]3CCO3)CC2)n1` [Compound 22, (S)-2-((4-(6-((1-cyclopropyl-4-fluoro-1H-pyrazol-3-yl)methoxy)pyridin-2-yl)piperidin-1-yl)methyl)-3-(oxetan-2-ylmethyl)-6-(5-(trifluoromethyl)-4H-1,2,4-triazol-3-yl)-3H-imidazo[4,5-c]pyridine] returned a half-maximal effective concentration (EC50) of 1 to 100 nM.
The molecule `C[C@]1(c2ccc(Cl)cc2F)Oc2cccc(C3CCN(Cc4nc5cc(C(=O)O)ncc5n4C[C@@H]4CCO4)CC3)c2O1` [Compound 23, 2-((4-((S)-2-(4-chloro-2-fluorophenyl)-2-methylbenzo[d][1,3]dioxol-4-yl)piperidin-1-yl)methyl)-3-(((S)-oxetan-2-yl)methyl)-3H-imidazo[4,5-c]pyridine-6-carboxylic acid] returned an EC50 of under 1 nM.
The result for `CNC(=O)c1cc2nc(CN3CCC(c4cccc5c4O[C@@](C)(c4ccc(Cl)cc4F)O5)CC3)n(C[C@@H]3CCO3)c2cn1` [Compound 24, 2-((4-((S)-2-(4-chloro-2-fluorophenyl)-2-methylbenzo[d][1,3]dioxol-4-yl)piperidin-1-yl)methyl)-N-methyl-3-(((S)-oxetan-2-yl)methyl)-3H-imidazo[4,5-c]pyridine-6-carboxamide] reads under 1 nM; that for `C[C@]1(c2ccc(Cl)cc2F)Oc2cccc(C3CCN(Cc4nc5cc(C(=O)NCC(F)(F)F)ncc5n4C[C@@H]4CCO4)CC3)c2O1` [Compound 25, 2-((4-((S)-2-(4-chloro-2-fluorophenyl)-2-methylbenzo[d][1,3]dioxol-4-yl)piperidin-1-yl)methyl)-3-(((S)-oxetan-2-yl)methyl)-N-(2,2,2-trifluoroethyl)-3H-imidazo[4,5-c]pyridine-6-carboxamide], under 1 nM.
The result for `COCCNC(=O)c1cc2nc(CN3CCC(c4cccc5c4O[C@@](C)(c4ccc(Cl)cc4F)O5)CC3)n(C[C@@H]3CCO3)c2cn1` [Compound 26, 2-((4-((S)-2-(4-chloro-2-fluorophenyl)-2-methylbenzo[d][1,3]dioxol-4-yl)piperidin-1-yl)methyl)-N-(2-methoxyethyl)-3-(((S)-oxetan-2-yl)methyl)-3H-imidazo[4,5-c]pyridine-6-carboxamide] reads under 1 nM; that for `C[C@]1(c2ccc(Cl)cc2F)Oc2cccc(C3CCN(Cc4nc5c(F)c(C(=O)O)ccc5n4C[C@@H]4CCO4)CC3)c2O1` [Compound 27, 2-((4-((S)-2-(4-chloro-2-fluorophenyl)-2-methylbenzo[d][1,3]dioxol-4-yl)piperidin-1-yl)methyl)-4-fluoro-1-(((S)-oxetan-2-yl)methyl)-1H-benzo[d]imidazole-5-carboxylic acid], under 1 nM.
The result for `O=C(O)c1cc2nc(CN3CCC(c4cccc(OCc5ccc(Cl)cc5F)n4)CC3)n(C[C@@H]3CCO3)c2cn1` [Compound 28, (S)-2-((4-(6-((4-chloro-2-fluorobenzyl)oxy)pyridin-2-yl)piperidin-1-yl)methyl)-3-(oxetan-2-ylmethyl)-3H-imidazo[4,5-c]pyridine-6-carboxylic acid] reads under 1 nM; that for `O=C(O)c1cc2nc(CN3CC=C(c4cccc(OCc5ccc(Cl)cc5F)n4)CC3)n(C[C@@H]3CCO3)c2cn1` [Compound 29, (S)-2-((6-((4-chloro-2-fluorobenzyl)oxy)-3′,6′-dihydro-[2,4′-bipyridin]-1′(2′H)-yl)methyl)-3-(oxetan-2-ylmethyl)-3H-imidazo[4,5-c]pyridine-6-carboxylic acid], under 1 nM; that for `O=C(O)c1cc2nc(CN3CC=C(c4ccc(F)c(OCc5ccc(Cl)cc5F)c4)CC3)n(C[C@@H]3CCO3)c2cn1` [Compound 30, (S)-2-((4-(3-((4-chloro-2-fluorobenzyl)oxy)-4-fluorophenyl)-3,6-dihydropyridin-1(2H)-yl)methyl)-3-(oxetan-2-ylmethyl)-3H-imidazo[4,5-c]pyridine-6-carboxylic acid], 1 to 100 nM.
Molecule `COc1cc(Cl)ccc1COc1cc(C2=CCN(Cc3nc4cc(-c5nnc(C(F)(F)F)[nH]5)ncc4n3C[C@@H]3CCO3)CC2)ccc1F` [Compound 31, (S)-2-((4-(3-((4-chloro-2-methoxybenzyl)oxy)-4-fluorophenyl)-3,6-dihydropyridin-1(2H)-yl)methyl)-3-(oxetan-2-ylmethyl)-6-(5-(trifluoromethyl)-4H-1,2,4-triazol-3-yl)-3H-imidazo[4,5-c]pyridine] registered an EC50 of under 1 nM.

The values are drawn from US20250250269A1, “HETEROCYCLIC GLP-1 AGONISTS” (Gasherbrum Bio, Inc., priority 2022, published 2025).
